Target: Mitogen-activated protein kinase 14 (Homo sapiens, UniProt Q16539)
Test: In Vitro Kinase Assay
Conditions: pH 7.4; 30 °C
Description: Inhibition of human recombinant active p38alpha MAP kinase was tested by measuring the incorporation of 33P from gamma-[33P] ATP into myelin basic protein (MBP). The assay was performed in a 96-well microtiter plate. The incorporated radioactivity was measured in a Packard Topcount microplate scintillation counter. The 50% inhibitory value was calculated by fitting the data to the equation: fractional activity = 1/[I]/IC50 + 1.

Chain of Mitogen-activated protein kinase 14 (Q16539 whole entry): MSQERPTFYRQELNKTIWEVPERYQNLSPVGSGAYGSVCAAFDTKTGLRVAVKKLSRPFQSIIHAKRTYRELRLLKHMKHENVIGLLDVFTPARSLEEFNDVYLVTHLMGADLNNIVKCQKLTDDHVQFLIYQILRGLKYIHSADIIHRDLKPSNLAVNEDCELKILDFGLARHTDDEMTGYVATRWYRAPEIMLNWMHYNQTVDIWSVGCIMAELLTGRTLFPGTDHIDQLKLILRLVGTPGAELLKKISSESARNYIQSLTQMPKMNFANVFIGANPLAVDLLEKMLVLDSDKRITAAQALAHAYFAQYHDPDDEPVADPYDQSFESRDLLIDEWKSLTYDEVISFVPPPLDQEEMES

CC(CO)Nc1cc(-c2[nH]c3cccnc3c2-c2ccc(F)cc2)ccn1 (stereo unspecified) [2-({4-[3-(4-fluorophenyl)-1H-pyrrolo[3,2-b]pyridin-2-yl]pyridin-2-yl}amino)propan-1-ol]
IC50: 3 nM

Reference: BindingDB's records for doi:10.1021/jm0301787 (Roche Palo Alto, 2003)
